The source of these data is US10533010B2, “Substituted indole Mcl-1 inhibitors” (Vanderbilt University, priority 2014, dated 2020).

Each structure is given as a SMILES string. Like-named read-outs stand apart in the source and are kept apart here.

The assay concerns the target recombinant Mcl-1 (residues 172-327) (Homo sapiens (Human), UniProt Q07820). Put plainly: Fluorescence polarization anisotropy competition assay (FITC-Bak or FITC-Bim BH3 peptide) with Mcl-1. It is filed as binding. (Fluorescence polarisation rises when a labelled molecule tumbles more slowly, as on binding a larger partner.)
The mark [1] stands for this setting: Table 2, Ki bins given in nM, FITC-Bak or FITC-Bim peptide competition, Ki converted from IC50, read-out: Ki for Inhibition of Mcl-1.
Setting [2] is: Table 2, Ki bins given in μM, FITC-Bak or FITC-Bim peptide competition, Ki converted from IC50, read-out: Ki for Inhibition of Mcl-1.

Chain of recombinant Mcl-1 (residues 172-327) (Q07820 172-327): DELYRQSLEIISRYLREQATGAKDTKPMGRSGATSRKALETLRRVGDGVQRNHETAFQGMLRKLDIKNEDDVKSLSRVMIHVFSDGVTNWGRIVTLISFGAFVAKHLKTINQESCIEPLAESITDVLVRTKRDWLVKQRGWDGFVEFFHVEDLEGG

With `Cc1cc(OCCCc2c(C(=O)NCc3cccc(C(=O)NS(=O)(=O)c4ccccc4C#N)c3)[nH]c3c(-c4c(CN5CCCC5)nn(C)c4C)cccc23)cc(C)c1Cl` [I-35, 3-(3-(4-chloro-3,5-dimethylphenoxy)propyl)-N-(3-(((2-cyanophenyl)sulfonyl)carbamoyl)benzyl)-7-(1,5-dimethyl-3-(pyrrolidin-1-ylmethyl)-1H-pyrazol-4-yl)-1H-indole-2-carboxamide], under setting [1], the Ki (in general, the equilibrium dissociation constant of an inhibitor or competing ligand from its target) was under 50 nM.

`Cc1cc(OCCCc2c(C(=O)NCC(=O)O)[nH]c3ccccc23)cc(C)c1Cl` [I-3, (3-(3-(4-chloro-3,5-dimethylphenoxy)propyl)-1H-indole-2-carbonyl)glycine]: the Ki lay within 501 to 999 nM.

Take `Cc1cc(OCCCc2c3n(c4c(-c5c(C)nn(C)c5C)c(Cl)ccc24)[C@H](C)CN(Cc2cccc(C(=O)O)c2)C3=O)cc(C)c1Cl` [I-155, (R)-3-((7-chloro-10-(3-(4-chloro-3,5-dimethylphenoxy)propyl)-4-methyl-1-oxo-6-(1,3,5-trimethyl-1H-pyrazol-4-yl)-3,4-dihydropyrazino[1,2-a]indol-2(1H)-yl)methyl)benzoic acid]: the Ki under setting [1] was under 50 nM.

Consider `Cc1cc(OCCCc2c(C(=O)NCc3cc(C(=O)O)cc(N4CCN(CCC(C)C)CC4)n3)[nH]c3c(-c4c(C)nn(C)c4C)c(Cl)ccc23)cc(C)c1Cl` [I-285, 2-((6-chloro-3-(3-(4-chloro-3,5-dimethylphenoxy)propyl)-7-(1,3,5-trimethyl-1H-pyrazol-4-yl)-1H-indole-2-carboxamido)methyl)-6-(4-isopentylpiperazin-1-yl)isonicotinic acid], for which the inhibition constant (Ki) under setting [1] is under 50 nM.

For `Cc1cc(OCCCc2c(C(=O)Nc3ccc(C(=O)O)c(N4CCOCC4)c3)[nH]c3c(-c4c(C)nn(C)c4C)c(Cl)ccc23)cc(C)c1Cl` [I-91, 4-(6-chloro-3-(3-(4-chloro-3,5-dimethylphenoxy)propyl)-7-(1,3,5-trimethyl-1H-pyrazol-4-yl)-1H-indole-2-carboxamido)-2-morpholinobenzoic acid], the Ki under setting [1] is under 50 nM.

For the compound `Cc1cc(OCCCc2c(C(=O)N3CCC(NC(=O)c4cccc(Oc5ccccc5)c4)CC3)[nH]c3ccccc23)cc(C)c1Cl` [I-259, N-(1-(3-(3-(4-chloro-3,5-dimethylphenoxy)propyl)-1H-indole-2-carbonyl)piperidin-4-yl)-3-phenoxybenzamide], the Ki under setting [2] lay in the range of 1000 to 9990 nM.

As to `Cc1cc(OCCCc2c(C(=O)NCc3ccccc3)[nH]c3ccccc23)cc(C)c1Cl` [I-41, N-benzyl-3-(3-(4-chloro-3,5-dimethylphenoxy)propyl)-1H-indole-2-carboxamide], the Ki under setting [2] lay in the range of 10000 to 50000 nM.

As to `Cc1cc(OCCCc2c3n(c4c(-c5c(C)nn(C)c5C)c(Cl)ccc24)CCCN(CCc2ccccc2C(=O)O)C3=O)cc(C)c1Cl` [I-294, 2-(2-(8-chloro-11-(3-(4-chloro-3,5-dimethylphenoxy)propyl)-1-oxo-7-(1,3,5-trimethyl-1H-pyrazol-4-yl)-4,5-dihydro-1H-[1,4]diazepino[1,2-a]indol-2(3H)-yl)ethyl)benzoic acid], the Ki under setting [1] is under 50 nM.

For `Cc1cc(OCCCc2c3n(c4c(-c5c(C)nn(C)c5C)c(Cl)ccc24)CCCN(c2cc(C(=O)O)c4c(Cl)cn(C)c4c2)C3=O)cc(C)c1Cl` [I-257, 3-chloro-6-(8-chloro-11-(3-(4-chloro-3,5-dimethylphenoxy)propyl)-1-oxo-7-(1,3,5-trimethyl-1H-pyrazol-4-yl)-4,5-dihydro-1H-[1,4]diazepino[1,2-a]indol-2(3H)-yl)-1-methyl-1H-indole-4-carboxylic acid], under setting [1], the Ki was under 50 nM.

`Cc1cc(OCCCc2c(C(=O)NC3CCN(C(=O)CC(=O)O)CC3)[nH]c3c(-c4c(C)nn(C)c4C)cccc23)cc(C)c1Cl` [I-318, 3-(4-(3-(3-(4-chloro-3,5-dimethylphenoxy)propyl)-7-(1,3,5-trimethyl-1H-pyrazol-4-yl)-1H-indole-2-carboxamido)piperidin-1-yl)-3-oxopropanoic acid]: the Ki under setting [1] was under 50 nM.

`Cc1cc(OCCCc2c3n(c4c(-c5c(C)nn(C)c5C)c(Cl)ccc24)CCCN(c2cc(C(=O)O)cc(N4CCN(C)CC4)c2)C3=O)cc(C)c1Cl` [I-219, 3-(8-chloro-11-(3-(4-chloro-3,5-dimethylphenoxy)propyl)-1-oxo-7-(1,3,5-trimethyl-1H-pyrazol-4-yl)-4,5-dihydro-1H-[1,4]diazepino[1,2-a]indol-2(3H)-yl)-5-(4-methylpiperazin-1-yl)benzoic acid]: the Ki under setting [1] was under 50 nM.

`Cc1cc(OCCCc2c(C(=O)NCCC(=O)NS(=O)(=O)c3ccc4ccccc4c3)[nH]c3ccccc23)cc(C)c1Cl` [I-16, 3-(3-(4-chloro-3,5-dimethylphenoxy)propyl)-N-(3-(naphthalene-2-sulfonamido)-3-oxopropyl)-1H-indole-2-carboxamide]: the Ki under setting [1] lay within 101 to 299 nM.

Consider `Cc1cc(OCCCc2c3n(c4c(-c5c(C)nn(C)c5C)cc(Cl)cc24)CCCN(c2cccc(C(=O)O)c2)C3=O)cc(C)c1Cl` [I-246, 3-(9-chloro-11-(3-(4-chloro-3,5-dimethylphenoxy)propyl)-1-oxo-7-(1,3,5-trimethyl-1H-pyrazol-4-yl)-4,5-dihydro-1H-[1,4]diazepino[1,2-a]indol-2(3H)-yl)benzoic acid], for which, under setting [1], the inhibition constant (Ki) lay in the range of 101 to 299 nM.

For the compound `Cc1cc(OCCCc2c3n(c4c(-c5c(C)nn(C)c5C)c(Cl)ccc24)[C@@H](C)CN(Cc2ccc(C(=O)O)cc2)C3=O)cc(C)c1Cl` [I-150, (S)-4-((7-chloro-10-(3-(4-chloro-3,5-dimethylphenoxy)propyl)-4-methyl-1-oxo-6-(1,3,5-trimethyl-1H-pyrazol-4-yl)-3,4-dihydropyrazino[1,2-a]indol-2(1H)-yl)methyl)benzoic acid], the Ki under setting [1] is under 50 nM.

For `CCOC(=O)c1ccc(CNC(=O)c2c(CCCOc3cc(C)c(Cl)c(C)c3)c3cccc(-c4c(C)nn(C)c4C)c3n2C)o1` [I-65, ethyl 5-((3-(3-(4-chloro-3,5-dimethylphenoxy)propyl)-1-methyl-7-(1,3,5-trimethyl-1H-pyrazol-4-yl)-1H-indole-2-carboxamido)methyl)furan-2-carboxylate], the Ki under setting [1] lay within 301 to 500 nM.

`Cc1cc(OCCCc2c3n(c4c(-c5c(C)nn(C)c5C)c(Cl)ccc24)C[C@H](C)N(Cc2cccc(C(=O)O)c2)C3=O)cc(C)c1Cl` [I-136, (S)-3-((7-chloro-10-(3-(4-chloro-3,5-dimethylphenoxy)propyl)-3-methyl-1-oxo-6-(1,3,5-trimethyl-1H-pyrazol-4-yl)-3,4-dihydropyrazino[1,2-a]indol-2(1H)-yl)methyl)benzoic acid]: under setting [1], the Ki was under 50 nM.

Turning to `CC[C@H](C)[C@H](NC(=O)c1ccc(CNC(=O)c2[nH]c3c(-c4c(C)nn(C)c4C)cccc3c2CCCOc2cc(C)c(Cl)c(C)c2)o1)C(=O)O` [I-270, (5-((3-(3-(4-chloro-3,5-dimethylphenoxy)propyl)-7-(1,3,5-trimethyl-1H-pyrazol-4-yl)-1H-indole-2-carboxamido)methyl)furan-2-carbonyl)-L-isoleucine], the Ki under setting [1] was under 50 nM.

Regarding `Cc1cc(OCCCc2c(C(=O)N[C@@H]3CCC[C@@H](C(=O)O)C3)[nH]c3c(-c4c(C)nn(C)c4C)c(Cl)ccc23)cc(C)c1Cl` [I-322, (1R,3R)-3-(6-chloro-3-(3-(4-chloro-3,5-dimethylphenoxy)propyl)-7-(1,3,5-trimethyl-1H-pyrazol-4-yl)-1H-indole-2-carboxamido)cyclohexane-1-carboxylic acid], under setting [1], the Ki was under 50 nM.

With `Cc1cc(OCCCc2c(C(=O)NCCC(=O)O)[nH]c3c(-c4c(C)n[nH]c4C)cccc23)cc(C)c1Cl` [I-23, 3-(3-(3-(4-chloro-3,5-dimethylphenoxy)propyl)-7-(3,5-dimethyl-1H-pyrazol-4-yl)-1H-indole-2-carboxamido)propanoic acid], the Ki under setting [1] was under 50 nM.

Consider `Cc1cc(OCCCc2c3n(c4c(-c5c(C)nn(C)c5C)c(Cl)ccc24)[C@@H](C)CN(c2cccc(C(=O)O)c2)C3=O)cc(C)c1Cl` [I-165, (S)-3-(7-chloro-10-(3-(4-chloro-3,5-dimethylphenoxy)propyl)-4-methyl-1-oxo-6-(1,3,5-trimethyl-1H-pyrazol-4-yl)-3,4-dihydropyrazino[1,2-a]indol-2(1H)-yl)benzoic acid], for which the Ki under setting [1] was under 50 nM.

With `Cc1cc(OCCCc2c(C(=O)N3CCC(N4CCOCC4)CC3)[nH]c3ccccc23)cc(C)c1Cl` [I-47, (3-(3-(4-chloro-3,5-dimethylphenoxy)propyl)-1H-indol-2-yl)(4-morpholinopiperidin-1-yl)methanone], the Ki under setting [2] was 10000 to 50000 nM.

With `Cc1cc(OCCCc2c3n(c4c(-c5c(C)nn(C)c5C)c(Cl)ccc24)CC(C)CN(Cc2ccc(C(=O)O)cc2)C3=O)cc(C)c1Cl` (stereo not drawn) [I-133, 4-((8-chloro-11-(3-(4-chloro-3,5-dimethylphenoxy)propyl)-4-methyl-1-oxo-7-(1,3,5-trimethyl-1H-pyrazol-4-yl)-4,5-dihydro-1H-[1,4]diazepino[1,2-a]indol-2(3H)-yl)methyl)benzoic acid], the Ki under setting [1] is under 50 nM.

For `Cc1cc(OCCCc2c3n(c4c(-c5c(C)nn(C)c5C)c(Cl)ccc24)CCCN(c2nc(C(=O)O)cs2)C3=O)cc(C)c1Cl` [I-359, 2-(8-chloro-11-(3-(4-chloro-3,5-dimethylphenoxy)propyl)-1-oxo-7-(1,3,5-trimethyl-1H-pyrazol-4-yl)-4,5-dihydro-1H-[1,4]diazepino[1,2-a]indol-2(3H)-yl)thiazole-4-carboxylic acid], the Ki under setting [1] is under 50 nM.

Consider `Cc1cc(OCCCc2c3n(c4c(-c5c(C)nn(C)c5C)c(Cl)ccc24)CCCN(c2ccc4ccn(C)c4c2)C3=O)cc(C)c1Cl` [I-248, 8-chloro-1-(3-(4-chloro-3,5-dimethylphenoxy)propyl)-2-(1-methyl-1H-indol-6-yl)-7-(1,3,5-trimethyl-1H-pyrazol-4-yl)-2,3,4,5-tetrahydro-1H-[1,4]diazepino[1,2-a]indol-1-one], for which the Ki under setting [1] is under 50 nM.
